Like-named read-outs stand apart in the source and are kept apart here.
System: cat fleas (Ctenocephalides felis)
Assay: Efficacy of various isoxazolines against cat fleas on mice (Example 3)
Type: in vivo
Details: for pest or weed control at 20 mg/kg: Ctenocephalides felis, po, read-out: Flea inhibition relative to negative control
Experimental: In this experiment, mice were randomly assigned to a treatment group or a negative control (untreated) group. Each group consisted of three mice. The mice in the treatment groups were orally administered 20 mg/kg bodyweight of various isoxazolines dissolved in 7% DMF-premix and 93% purified water (aqua ad injectabilia). The application volume of these treatments was 0.01 mL/g bodyweight. One hour after treatment, each mouse was sedated and generally infested (whole body) with 30 vital, adult fleas (C. felis). To achieve this, the sedated mice were placed into an infestation-jar, and the fleas were placed directly onto the fur. After approximately 30 minutes of feeding, fleas were recovered from the mice. Assessments for inhibition and mortality were conducted 1 hr, 24 hr, and 48 hr after each infestation. The efficacy was calculated as the percentage of inhibited fleas in the treatment groups relative to the negative control group.

[1] = 1 h, mice, oral 20 mg/kg, infested 1 hr after treatment, 1 hr after infestation
[2] = 24 h, mice, oral 20 mg/kg, infested 1 hr after treatment, 24 hr after infestation
[3] = 48 h, mice, oral 20 mg/kg, infested 1 hr after treatment, 48 hr after infestation
[4] = mice, oral 20 mg/kg, infested 1 hr after treatment, 1 hr after infestation

Structure (SMILES)	pest or weed control at 20 mg/kg [1]	pest or weed control at 20 mg/kg [2]	pest or weed control at 20 mg/kg [3]	pest or weed control at 20 mg/kg (1 h)	pest or weed control at 20 mg/kg (24 h)	pest or weed control at 20 mg/kg (48 h)	Flea inhibition relative to negative control [4]
CCc1cc(C2=NOC(c3cc(Cl)cc(Cl)c3)(C(F)(F)F)C2)ccc1C(=O)NCC(F)(F)F (stereo not shown) [Compound 5-15]	0%	31.1%	36.7%				
CON=CNC(=O)c1ccc(C2=NOC(c3cc(Cl)c(Cl)c(Cl)c3)(C(F)(F)F)C2)cc1C (stereo not shown) [Compound 5-33]	0%	100%	100%				
Cc1cc(C2=NOC(c3cc(Cl)cc(Cl)c3)(C(F)(F)F)C2)ccc1C(=O)N(C(=O)C(C)C)c1ncc(Cl)cn1 (stereo not shown) [Compound 5-23]	0%	87.8%	94.4%				
Cc1cc(C2=NOC(c3cc(Cl)cc(Cl)c3)(C(F)(F)F)C2)ccc1C(=O)Nc1cncnc1 (stereo not shown) [Compound 5-55]	0%	92.2%	93.3%				
Cc1cc(C2=NOC(c3cc(Cl)cc(Cl)c3)(C(F)(F)F)C2)ccc1C(=O)N(C(=O)C1CC1)c1ncc(Cl)cn1 (stereo not shown) [Compound 5-24]	0%	84.4%	86.7%				
Cc1cc(C2=NOC(c3cc(Cl)c(F)c(Cl)c3)(C(F)(F)F)C2)ccc1C(=O)NCC(=O)NCC(F)(F)F (stereo not shown) [Compound 5-40]				0%	85.6%	85.6%	
COC(=O)N(Cc1ccccn1)C(=O)c1ccc(C2=NOC(c3cc(Cl)cc(Cl)c3)(C(F)(F)F)C2)cc1C (stereo not shown) [Compound 5-19]	0%	90%	94.4%				
O=C(CNC(=O)c1ccc(C2=NOC(c3cc(C(F)(F)F)cc(C(F)(F)F)c3)(C(F)(F)F)C2)cc1)NCC(F)(F)F (stereo not shown) [Compound 5-34]	2.3%	96.6%	96.6%				
COC(=O)N(C)C(=O)c1ccc(C2=NOC(c3cc(Cl)cc(Cl)c3)(C(F)(F)F)C2)cc1I (stereo not shown) [Compound 5-20]	4.4%	96.7%	97.8%				
Cc1cc(C2=NOC(c3cc(Cl)cc(Cl)c3)(C(F)(F)F)C2)ccc1C(=O)NC(C)C(=O)NCC(F)(F)F (stereo not shown) [Compound 5-54]							5-47 (0%), 5-54 (0%),
CCO/C(N)=N\C(=O)c1ccc(C2=NOC(c3cc(Cl)cc(Cl)c3)(C(F)(F)Cl)C2)cc1C (stereo not shown) [Compound 5-38]	2.3%	96.7%	97.7%				
COCN(C(=O)OC)C(=O)c1ccc(C2=NOC(c3cc(Cl)cc(Cl)c3)(C(F)(F)F)C2)cc1Br (stereo not shown) [Compound 5-26]	0%	77.8%	77.8%				
Cc1cc(C2=NOC(c3cc(Cl)cc(Cl)c3)(C(F)(F)F)C2)ccc1C(=O)N(C(=O)C(C)C)c1ncc(C#N)cn1 (stereo not shown) [Compound 5-18]	0%	54.4%	54.4%				
Cc1cc(C2=NO[C@](c3cc(Cl)cc(Cl)c3)(C(F)(F)F)C2)ccc1C(=O)NCC(=O)NCC(F)(F)F [Compound 11-1R]	0%	0%	0%				
CC(=O)N(C(=O)c1ccc(C2=NOC(c3cc(Cl)cc(Cl)c3)(C(F)(F)F)C2)cc1C)c1ncc(Br)cn1 (stereo not shown) [Compound 5-22]	0%	82.2%	83.3%				
Cc1cc(C2=NOC(CCl)(c3cc(Cl)cc(Cl)c3)C2)ccc1C(=O)NCc1ccccn1 (stereo not shown) [Compound 5-13]	16.7%	18.9%	18.9%				
CCO/C(N)=N\C(=O)c1ccc(C2=NOC(c3cc(Br)cc(Br)c3)(C(F)(F)F)C2)cc1C (stereo not shown) [Compound 5-37]	7.7%	99%	100%				
COC(=O)N(COCC(F)(F)F)C(=O)c1ccc(C2=NOC(c3cc(Cl)cc(Cl)c3)(C(F)(F)F)C2)cc1C (stereo not shown) [Compound 5-25]	0%	75.6%	84.4%				
C#CCNC(=O)CNC(=O)c1ccc(C2=NOC(c3cc(Cl)cc(Cl)c3)(C(F)(F)F)C2)cc1C (stereo not shown) [Compound 5-67]	80%	100%	100%				
Cc1cc(C2=NOC(c3cc(Cl)cc(Cl)c3)(C(F)(F)F)C2)ccc1C(=S)NCc1cscn1 (stereo not shown) [Compound X-1]	4.3%	100%	100%				

Structure (SMILES)	pest or weed control at 20 mg/kg [1]	pest or weed control at 20 mg/kg [2]	pest or weed control at 20 mg/kg [3]	pest or weed control at 20 mg/kg (1 h)	pest or weed control at 20 mg/kg (24 h)	pest or weed control at 20 mg/kg (48 h)	Flea inhibition relative to negative control [4]
CC(=O)N(C(=O)c1ccc(C2=NOC(c3cc(Cl)cc(Cl)c3)(C(F)(F)F)C2)cc1C)c1ncc(C#N)cn1 (stereo not shown) [Compound 5-30]	2.2%	67.8%	68.9%				
COC(=O)N(C(=O)c1ccc(C2=NOC(c3cc(Cl)cc(Cl)c3)(C(F)(F)F)C2)cc1C)c1cnc(Cl)cn1 (stereo not shown) [Compound 5-17]	0%	36.7%	41.1%				
COCN(C(=O)c1ccc(C2=NOC(c3cc(Cl)cc(Cl)c3)(C(F)(F)F)C2)cc1C)c1ncc(Cl)cn1 (stereo not shown) [Compound 5-28]	1.1%	70%	71.1%				
COC(=O)N(C)C(=O)c1ccc(C2=NOC(c3cc(Cl)cc(Cl)c3)(C(F)(F)F)C2)cc1C (stereo not shown) [Compound 5-16]	0%	46.7%	54.4%				
COC(=O)N(COC(C)C)C(=O)c1ccc(C2=NOC(c3cc(Cl)cc(Cl)c3)(C(F)(F)F)C2)cc1C (stereo not shown) [Compound 5-27]	12.2%	72.2%	84.4%				
CC(=O)N(C(=O)c1ccc(C2=NOC(c3cc(Cl)cc(Cl)c3)(C(F)(F)F)C2)cc1C)N(C)c1ccccc1 (stereo not shown) [Compound 5-57]	0%	86.7%	87.7%				
Cc1cc(C2=NOC(c3cc(Cl)cc(Cl)c3)(C(F)(F)F)C2)ccc1C(=O)NC1CCCO1 (stereo not shown) [Compound 5-64]	50%	97.8%	97.8%				
COC(=O)N(C(=O)c1ccc(C2=NOC(c3cc(Cl)cc(Cl)c3)(C(F)(F)F)C2)cc1C)c1ncc(Cl)cn1 (stereo not shown) [Compound 5-48]		91.1%	91.1%				
O=C(CNC(=O)c1ccc(C2=NOC(c3cc(Cl)c(Cl)c(C(F)(F)F)c3)(C(F)(F)F)C2)cc1)NCC(F)(F)F (stereo not shown) [Compound 5-39]	13.3%	99%	99%				
CCNC(=O)CNC(=O)c1ccc(C2=NOC(c3cc(Cl)cc(Cl)c3)(C(F)(F)F)C2)cc1C (stereo not shown) [Compound 14-1]	97.8%	100%	100%				
COC(CNC(=O)c1ccc(C2=NOC(c3cc(Cl)cc(Cl)c3)(C(F)(F)Cl)C2)cc1C)OC (stereo not shown) [Compound 5-53]	0%	82.2%	91.1%				
CCN(C(=O)c1ccc(C2=NOC(c3cc(Cl)cc(Cl)c3)(C(F)(F)F)C2)cc1C)c1ncc(Cl)cn1 (stereo not shown) [Compound 5-21]	0%	75.6%	77.8%				
Cc1cc(C2=NOC(c3cc(Cl)c(F)c(C(F)(F)F)c3)(C(F)(F)F)C2)ccc1C(=O)NCC(=O)NCC(F)(F)F (stereo not shown) [Compound 5-41]	0%	94.3%	95.6%				
COCN(C(=O)OC)C(=O)c1ccc(C2=NOC(c3cc(Cl)cc(Cl)c3)(C(F)(F)F)C2)cc1I (stereo not shown) [Compound 5-29]	0%	68.9%	68.9%				
CCO/N=C\NC(=O)c1ccc(C2=NOC(c3cc(Cl)cc(Cl)c3)(C(F)(F)F)C2)cc1C (stereo not shown) [Compound 5-50]							(27.7%)
CC(NC(=O)c1ccc(C2=NOC(c3cc(Cl)c(Cl)c(Cl)c3)(C(F)(F)F)C2)cc1)C(=O)NCC(F)(F)F (stereo not shown) [Compound 5-35]	0%	100%	100%				
CC(=O)N(C(=O)c1ccc(C2=NOC(c3cc(Cl)cc(Cl)c3)(C(F)(F)F)C2)cc1C)c1cnccn1 (stereo not shown) [Compound 5-32]	0%	70%	71.1%				
Cc1cc(C2=NO[C@@](c3cc(Cl)cc(Cl)c3)(C(F)(F)F)C2)ccc1C(=O)NCC(=O)NCC(F)(F)F (stereo in doubt) [Compound 17-1]	100%	100%	100%				
COC(=O)N(C(=O)c1ccc(C2=NOC(c3cc(Cl)cc(Cl)c3)(C(F)(F)F)C2)cc1C)c1ncc(C#N)cn1 (stereo not shown) [Compound 5-31]	0%	65.6%	65.6%				
